{
  "source": "patent US12685777B2",
  "about": "“Compositions, systems, and methods for modulating a target gene” (The Board of Trustees of the Leland Stanford Junior …, priority 2022, dated 2026)",
  "key": {"[1]": {"tested_on": "gene expression in KARPAS422 cells", "test": "RNA-seq of drug-treated KARPAS422 cells", "assay_type": "cell-based, human", "description": "(§1) 12. RNA Extraction, qPCR, and Sequencing Library Preparation Cells were plated at 1 M/mL and harvested in TRIsure (Bioline #38033). RNA was extracted using Direct-zol RNA MicroPrep columns (Zymo #R^2062) treated with DNAseI. cDNA was prepared for RT-qPCR using the SensiFAST cDNA preparation kit according to manufacturer instructions (Bioline #65054). 1 μL of cDNA was used per RT-qPCR reaction prepared with SYBR Lo-ROX (Bioline #94020). For sequencing library preparation, polyA-containing transcripts were enriched for (NEB #E7490S) and prepared into paired-end libraries (NEB #E7760S). Libraries were sequenced on an Illumina NovaSeq (Novogene). 13. Western Blots\n(www.bioinformatics.babraham.ac.uk/projects/fastqc/) and trimmed from adapters using cutadapt (Martin, M., EMBnet.journal (2011) 17: 10) using parameters cutadapt—a […] -b (SEQ ID NO:01) […] (SEQ ID NO:02) -nextseq-trim=20-minimum-length 1. Transcripts were quantified using kallisto (Bray et al., Nature Biotechnology (2016) 34: 525-527) against the human Gencode v33 indexed transcriptome and annotations. […] 15. ChIP-Seq Experiment and Library Preparation\n(§2) Because a high percentage of the TCIP1-treated cells contain fragmented DNA by TUNEL assay at 24 hours (FIG. 31, Panel E), many of the “reduced genes” could reflect DNA fragmentation as part of the apoptotic process and digestion to mononucleosomes. Among the group of genes whose expression was most reduced were MYC and its targets (FIGS. 33B, 36C). The top 100 most TCIP1-reduced genes were examined using ChIP-seq data of human transcription factors in blood cancer cell lines, and found the promoters of TCIP1-inhibited genes highly enriched for MYC binding in multiple datasets (FIG. 33, Panel C). This is significant since many DLBCLs are considered to be MYC-dependent.\nAlmost all differential genes were increasingly activated at 4 hours compared to negligible effects of the control molecules Neg1 and Neg2 (FIG. 35, Panel B)."}, "KARPAS422": {"tested_on": "KARPAS422", "test": "Cell viability (resazurin/PrestoBlue) of KARPAS422 DLBCL cells", "assay_type": "cell-based, human", "description": "(§3) 30,000 cells were plated in 100 μL media per well of a 96 well plate and treated with drug for indicated times and doses. A resazurin-based indicator of cell health (PrestoBlue, ThermoFisher #P50200) was added for 1.5 hours after which the fluorescence ratio at 560/590 nm was recorded. The background fluorescence was subtracted and the signal was normalized to DMSO-treated cells. EC50 measurements on cell lines were done with 4 biological repeats by separate cell passages maintained by 3 independent investigators. Fit of dose-response curves to data and statistical analysis was performed using drc package in R using the four-parameter log-logistic function.\nThese molecules were tested for their effect on viability of the chemotherapy (CHOP, or cyclophosphamide, hydroxydaunorubicin, Oncovin, and prednisone)-resistant DLBCL cell line, KARPAS422. […] Cell killing was essentially complete at 72 hours (FIG. 27, Panel D)."}, "[2]": {"tested_on": "MYC, FOXO3, p21, BCL6, BRD4 protein levels in KARPAS422 and SUDHL5", "test": "Western blots of target proteins in DLBCL cells", "assay_type": "cell-based, human", "description": "Cells were plated at 1 M/mL and treated with drug at indicated timepoints and doses. 2 M Cells were harvested on ice in RIPA buffer (50 mM Tris-HCl pH 8, 150 mM NaCl, 1% NP-40, 0.1% DOC, 1% SDS, protease inhibitor cocktail (homemade), 1 mM DTT) and 1:200 benzonase (Sigma #E1014) was added and incubated for 20 minutes. After 10 minute centrifugation at 14,000 g and 4° C., the supernatant was collected and protein concentration was measured by Bradford.\nas §2\nSignaling via NF-kB is known to be repressed by BCL6."}, "BCL6 mRNA": {"tested_on": "BCL6 mRNA", "test": "RT-qPCR of BCL6 isoforms", "assay_type": "cell-based, human", "details": "10 nM", "description": "as §1\nThus, TCIPs can rewire a repressive negative feedback pathway into a positive feedback pathway, amplifying the potency of the molecule in killing cancer cells (model in FIG. 40, Panel D)."}, "[3]": {"test": "Mouse tolerability and pharmacokinetic study", "assay_type": "in vivo", "description": "Vehicle was the same formulation (5/5/80 DMSO/Tween-80/Saline). The formulation was checked to be a clear solution and after administration, the animal was put back in its cage. For PK properties, plasma levels were measured at 0, 5, 15, 30, 60, 120, 240, 360, and 480 mins after drug administration. For tolerability work, bodyweights and observation of animal health were recorded each day through 5 days of dosing once daily. After 5 days, tissues were collected 8 hours after the last drug administration and split into one part for RNA-seq, homogenized in TRIzoI (Thermo #15596026), another part for histology, snap-frozen, and another part for measurement of drug levels where molar concentrations were recorded with the assumption of 1 g tissue ~1 mL. FFPE blocks (on snap-frozen tissue) and H & E staining were done by the Stanford Histology/Pathology Service Core, by Prof. Hannes Vogel, MD and Pauline Chu.\nAfter treatment, mouse tissue was harvested for RNA-seq and histology."}, "[4]": {"tested_on": "primary human tonsillar lymphocytes", "test": "Cell viability of primary human tonsillar lymphocytes", "assay_type": "cell-based", "details": "72 hours, read-out: EC50 of killing of lymphocytes", "description": "Lymphoma and leukemia cells were cultured in RPMI-1640 (ATCC 30-2001)+10% FBS with antibiotics (100× PenStrep GIBCO #15140122). Primary human fibroblasts were obtained from ATCC (#CRL2522), cultured in DMEM+10% FBS with antibiotics and used at passages 3-5. Primary human tonsillar lymphocytes were a kind gift from M. M. Davis. Cells were routinely checked for mycoplasma and immediately checked upon suspicion. No cultures tested positive.\nas §3\nAfter treatment, mouse tissue was harvested for RNA-seq and histology. […] Serum concentrations after 8 hours were -100 to 400-fold higher than therapeutic doses (FIG. 37, Panel C)."}, "[5]": {"details": "C57BL/6 mice, 10 mg/kg IP once daily for 5 days"}, "[6]": {"details": "RNA-seq, 10 mg/kg IP q.d. 5 days"}},
  "note": "Read-outs that look alike come from different tables or passages of the source.",
  "data": [
    {"smiles": "CNC(=O)COc1cc2cc(Nc3nc(N4CCC(C(=O)NCCCCCCCNC(=O)C[C@@H]5N=C(c6ccc(Cl)cc6)c6c(sc(C)c6C)-n6c(C)nnc65)CC4)ncc3Cl)cc(OC)c2n(C)c1=O", "note": "[JWZ-7-7, (S)-1-(5-chloro-4-((8-methoxy-1-methyl-3-(2-(methylamino)-2-oxoethoxy)-2-oxo-1,2-dihydroquinolin-6-yl)amino)pyrimidin-2-yl)-N-(7-(2-(4-(4-chlorophenyl)-2,3,9-trimethyl-6H-thieno[3,2-f][1,2,4]triazolo[4,3-a][1,4]diazepin-6-yl)acetamido)heptyl)piperidine-4-carboxamide]", "values": [
      {"measurement": "BCL6 repressed genes activated", "setting": "[1]; RNA-seq", "result": 60, "unit": "%"},
      {"measurement": "EC50", "setting": "KARPAS422; Homo sapiens, KARPAS-422, KARPAS422 (CHOP-resistant, TP53-mutant DLBCL), 72 hours after addition of drug, read-out: EC50 of cell killing / cell viability", "result": 1.3, "unit": "nM"},
      {"measurement": "Concentration that regulates genes critical for DLBCL", "setting": "[2]; Karpas 422, 24 hours, Western blot", "result": "< 1", "unit": "NM"}
    ]},
    {"smiles": "CNC(=O)COc1cc2cc(Nc3nc(N4CCC(C(=O)NCCCCCCCNC(=O)C[C@@H]5N=C(c6ccc(Cl)cc6)c6c(sc(C)c6C)-n6c(C)nnc65)CC4)ncc3Cl)cc(OC)c2n(C)c1=O", "note": "[TCIP1]", "values": [
      {"measurement": "Time to upregulation of the long isoform of BCL6 mRNA", "setting": "BCL6 mRNA", "result": "1 to 2", "unit": "h"},
      {"measurement": "Body weight change", "setting": "[3]; [5]", "result": "no significant changes in mouse body weight"},
      {"measurement": "H & E staining and examination of tissue", "setting": "[3]; [5]", "result": "did not reveal noticeable abnormalities"},
      {"measurement": "Tolerability", "setting": "[3]; [5]", "result": "well-tolerated with no adverse effects noticed"},
      {"measurement": "Genes downregulated in the liver", "setting": "[3]; [6]", "result": 167, "unit": "genes"},
      {"measurement": "Genes downregulated in the lung", "setting": "[3]; [6]", "result": 204, "unit": "genes"},
      {"measurement": "Genes downregulated in the spleen", "setting": "[3]; [6]", "result": "2,471 genes"},
      {"measurement": "Genes upregulated in the liver", "setting": "[3]; [6]", "result": 255, "unit": "genes"},
      {"measurement": "Genes upregulated in the lung", "setting": "[3]; [6]", "result": 301, "unit": "genes"},
      {"measurement": "Genes upregulated in the spleen", "setting": "[3]; [6]", "result": "2,785 genes"},
      {"measurement": "EC50", "setting": "[4]", "result": 210, "unit": "nM"},
      {"measurement": "Number of genes activated", "setting": "[1]; 10 nM, 2 hours, KARPAS422", "result": 140, "unit": "genes"},
      {"measurement": "Median change of activated genes", "setting": "[1]; 10 nM, 20 hours, KARPAS422", "result": 4, "unit": "fold"},
      {"measurement": "Number of genes increased in expression", "setting": "[1]; 10 nM, 20 hours, KARPAS422", "result": "1,674 genes"},
      {"measurement": "Number of genes reduced in expression", "setting": "[1]; 10 nM, 20 hours, KARPAS422", "result": "1,364 genes"},
      {"measurement": "Increase of CDKN1A (p21) expression", "setting": "[1]; RNA-seq, 20 hours, KARPAS422", "result": "about 64 fold"},
      {"measurement": "EC50", "setting": "KARPAS422; KARPAS422 (CHOP-resistant, TP53-mutant DLBCL), 72 hours after addition of drug, read-out: EC50 of cell killing / cell viability", "result": 1.3, "unit": "nM"},
      {"measurement": "EC50", "setting": "KARPAS422; KARPAS422, without cell cycle arrest, read-out: EC50 of cell viability without arrest", "result": 1.1, "unit": "nM"},
      {"measurement": "Time to FOXO3 activation", "setting": "[2]; 10 nM", "result": "within two hours"},
      {"measurement": "Effect on BRD4 protein levels", "setting": "[2]; 20 hours, KARPAS422", "result": "did not change substantially"},
      {"measurement": "Concentration from which the long isoform of BCL6 protein is induced", "setting": "[2]; DLBCL cell lines", "result": "0.5 to 1", "unit": "nM"},
      {"measurement": "Concentration that activates FOXO3", "setting": "[2]; Western blot", "result": 0.5, "unit": "nM"},
      {"measurement": "Concentration from which MYC protein levels are reduced", "setting": "[2]; Western blot, DLBCL cells", "result": "less than 1 nM"},
      {"measurement": "Time to reduction of MYC protein levels", "setting": "[2]; after drug addition", "result": "≤ 2", "unit": "h"}
    ]}
  ]
}
